Measurements taken from article PMC8847695 (Frontiers in Chemistry, 2022).

Assays:
Type in all cases: binding
Conditions in all cases: 1 = hit, 0 = no hit
AAK1 (121-471) = AAK1 (121-471) (Homo sapiens, UniProt Q2M2I8); test: STD-NMR fragment screening, AAK1
Summary of the method: (§1)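 Saturation-transfer difference NMR was run at 25°C and 700 MHz with 20 µM protein, two fragments at 1 mM each, and 10% DMSO-d6. On-resonance saturation was at 0.5–0.6 ppm and off-resonance at 40 ppm, with a 3 s Gaussian-pulse train. A hit required a difference-spectrum peak at least three times the local noise.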

CAMK1G (1-320) = target: T1, CAMK1G (1-320) (Homo sapiens, UniProt Q96NX5); test: STD-NMR fragment screening, CAMK1G
T1 construct: made in house; host or cells: E. coli BL21 (DE3) pLysS
T1 sequence (Q96NX5 1-320): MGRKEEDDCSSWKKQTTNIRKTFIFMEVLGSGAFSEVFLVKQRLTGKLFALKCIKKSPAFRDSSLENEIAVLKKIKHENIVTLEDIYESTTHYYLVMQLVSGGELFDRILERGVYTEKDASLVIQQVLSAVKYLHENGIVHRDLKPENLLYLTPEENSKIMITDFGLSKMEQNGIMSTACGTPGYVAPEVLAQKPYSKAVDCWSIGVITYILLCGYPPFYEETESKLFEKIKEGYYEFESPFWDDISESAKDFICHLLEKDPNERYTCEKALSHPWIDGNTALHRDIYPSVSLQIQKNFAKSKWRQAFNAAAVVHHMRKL
Summary of the method: as §1

IDO1 (1-435) = target: T2, IDO1 (1-435) (Homo sapiens, UniProt P14902); test: STD-NMR fragment screening, IDO1
T2 construct: His-tag of pET15b with TEV site (thrombin site replaced) (cleaved yes); made in house; host or cells: E. coli Rosetta 2 (DE3) pLysS
T2 sequence (P14902 whole entry, the tested form may be a part): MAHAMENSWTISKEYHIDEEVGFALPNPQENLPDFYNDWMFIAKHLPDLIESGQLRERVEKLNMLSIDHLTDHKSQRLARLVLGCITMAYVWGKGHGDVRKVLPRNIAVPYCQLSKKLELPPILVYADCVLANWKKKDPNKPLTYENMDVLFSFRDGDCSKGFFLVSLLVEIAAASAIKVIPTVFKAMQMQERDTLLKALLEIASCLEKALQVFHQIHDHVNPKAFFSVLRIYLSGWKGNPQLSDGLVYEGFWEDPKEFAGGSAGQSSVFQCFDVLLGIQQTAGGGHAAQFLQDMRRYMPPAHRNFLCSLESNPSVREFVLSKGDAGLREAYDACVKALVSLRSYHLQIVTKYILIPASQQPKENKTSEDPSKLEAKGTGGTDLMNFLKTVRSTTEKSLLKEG
Summary of the method: as §1

DOT1L (1-416) = target: T3, DOT1L (1-416) (Homo sapiens, UniProt Q8TEK3); test: STD-NMR fragment screening, DOT1L
T3 construct: made in house; host or cells: E. coli BL21 (DE3) pLysS
T3 sequence (Q8TEK3 1-416): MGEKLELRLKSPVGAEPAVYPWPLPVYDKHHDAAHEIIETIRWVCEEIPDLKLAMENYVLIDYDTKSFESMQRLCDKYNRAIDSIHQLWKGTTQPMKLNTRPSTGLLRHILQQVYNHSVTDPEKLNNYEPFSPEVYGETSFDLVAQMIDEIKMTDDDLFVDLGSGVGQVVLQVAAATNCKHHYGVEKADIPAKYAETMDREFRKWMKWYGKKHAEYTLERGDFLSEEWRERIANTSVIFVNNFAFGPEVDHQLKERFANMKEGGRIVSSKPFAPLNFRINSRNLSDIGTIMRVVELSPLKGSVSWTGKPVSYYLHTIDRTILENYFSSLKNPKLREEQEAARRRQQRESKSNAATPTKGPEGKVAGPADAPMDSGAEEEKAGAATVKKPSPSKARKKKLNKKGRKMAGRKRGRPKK
Summary of the method: as §1

AAK1 (121-471), sequence (Q2M2I8 46-315 limits assumed): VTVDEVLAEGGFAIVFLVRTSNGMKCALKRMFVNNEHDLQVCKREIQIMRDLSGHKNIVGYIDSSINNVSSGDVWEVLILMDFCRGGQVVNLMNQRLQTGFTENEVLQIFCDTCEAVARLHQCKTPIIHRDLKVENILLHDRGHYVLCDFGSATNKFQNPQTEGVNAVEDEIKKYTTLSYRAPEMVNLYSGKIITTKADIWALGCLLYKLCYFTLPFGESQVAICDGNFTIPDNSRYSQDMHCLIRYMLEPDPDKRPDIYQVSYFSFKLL

`O=C(O)c1ccc(Br)cn1` [Fragment B02291245] was tested, and the “AAK1 (STD-NMR hit flag)” value (AAK1 (121-471)) was 0, the “CAMK1G (STD-NMR hit flag)” value (CAMK1G (1-320)) was 0 and the “IDO1 (STD-NMR hit flag)” value (IDO1 (1-435)) was 0. For the same compound, the “DOT1L (STD-NMR hit flag)” value (DOT1L (1-416)) was 0.
For `COc1cc(OC)nc(Cl)n1` [Fragment B02291246], the “AAK1 (STD-NMR hit flag)” value (AAK1 (121-471)) was 1, the “CAMK1G (STD-NMR hit flag)” value (CAMK1G (1-320)) was 0 and the “IDO1 (STD-NMR hit flag)” value (IDO1 (1-435)) was 1. The “DOT1L (STD-NMR hit flag)” value (DOT1L (1-416)) was 0.
With `O=C(O)C(O)c1ccccc1Cl` (stereo not drawn) [Fragment B02291247] the “AAK1 (STD-NMR hit flag)” value (AAK1 (121-471)) was 0, the “CAMK1G (STD-NMR hit flag)” value (CAMK1G (1-320)) was 0 and the “IDO1 (STD-NMR hit flag)” value (IDO1 (1-435)) was 0. The “DOT1L (STD-NMR hit flag)” value (DOT1L (1-416)) was 0.
`O=c1[nH]cc(Br)c(=O)[nH]1` [Fragment B02291248] was tested, and the “AAK1 (STD-NMR hit flag)” value (AAK1 (121-471)) was 1, the “CAMK1G (STD-NMR hit flag)” value (CAMK1G (1-320)) was 1 and the “IDO1 (STD-NMR hit flag)” value (IDO1 (1-435)) was 0. For the same compound, the “DOT1L (STD-NMR hit flag)” value (DOT1L (1-416)) was 0.
`O=C(O)Cc1ccc(Cl)nc1` [Fragment B02291249] was tested, and the “AAK1 (STD-NMR hit flag)” value (AAK1 (121-471)) was 0, the “CAMK1G (STD-NMR hit flag)” value (CAMK1G (1-320)) was 0 and the “IDO1 (STD-NMR hit flag)” value (IDO1 (1-435)) was 0. The “DOT1L (STD-NMR hit flag)” value (DOT1L (1-416)) was 0.
With `Cc1nn(CCO)c(N)c1I` [Fragment B02291250] the “AAK1 (STD-NMR hit flag)” value (AAK1 (121-471)) was 0, the “CAMK1G (STD-NMR hit flag)” value (CAMK1G (1-320)) was 1 and the “IDO1 (STD-NMR hit flag)” value (IDO1 (1-435)) was 0. For the same compound, the “DOT1L (STD-NMR hit flag)” value (DOT1L (1-416)) was 0.
In the case of `O=C(O)c1cnc(Cl)cn1` [Fragment B02291251], the “AAK1 (STD-NMR hit flag)” value (AAK1 (121-471)) is reported as 0, the “CAMK1G (STD-NMR hit flag)” value (CAMK1G (1-320)) is reported as 0 and the “IDO1 (STD-NMR hit flag)” value (IDO1 (1-435)) is reported as 0. For the same compound, the “DOT1L (STD-NMR hit flag)” value (DOT1L (1-416)) was 0.
`Cn1nc(Br)c(C(=O)NCC(=O)O)c1N` [Fragment B02291252] was tested, and the “AAK1 (STD-NMR hit flag)” value (AAK1 (121-471)) was 1, the “CAMK1G (STD-NMR hit flag)” value (CAMK1G (1-320)) was 0 and the “IDO1 (STD-NMR hit flag)” value (IDO1 (1-435)) was 0. The “DOT1L (STD-NMR hit flag)” value (DOT1L (1-416)) was 0.
With `O=C1CCS(=O)(=O)c2ccc(Cl)cc21` [Fragment B02291253] the “AAK1 (STD-NMR hit flag)” value (AAK1 (121-471)) was 0, the “CAMK1G (STD-NMR hit flag)” value (CAMK1G (1-320)) was 1 and the “IDO1 (STD-NMR hit flag)” value (IDO1 (1-435)) was 0. For the same compound, the “DOT1L (STD-NMR hit flag)” value (DOT1L (1-416)) was 0.
In the case of `Clc1ncnc2[nH]ccc12` [Fragment B02291254], the “AAK1 (STD-NMR hit flag)” value (AAK1 (121-471)) is reported as 1, the “CAMK1G (STD-NMR hit flag)” value (CAMK1G (1-320)) is reported as 1 and the “IDO1 (STD-NMR hit flag)” value (IDO1 (1-435)) is reported as 1. For the same compound, the “DOT1L (STD-NMR hit flag)” value (DOT1L (1-416)) was 0.
For `O=C1Nc2cccc(Cl)c2C1=O` [Fragment B02291255], the “AAK1 (STD-NMR hit flag)” value (AAK1 (121-471)) was 0, the “CAMK1G (STD-NMR hit flag)” value (CAMK1G (1-320)) was 0 and the “IDO1 (STD-NMR hit flag)” value (IDO1 (1-435)) was 0. The “DOT1L (STD-NMR hit flag)” value (DOT1L (1-416)) was 0.
`Clc1cncc(-n2cccn2)n1` [Fragment B02291256] was tested, and the “AAK1 (STD-NMR hit flag)” value (AAK1 (121-471)) was 1, the “CAMK1G (STD-NMR hit flag)” value (CAMK1G (1-320)) was 1 and the “IDO1 (STD-NMR hit flag)” value (IDO1 (1-435)) was 0. The “DOT1L (STD-NMR hit flag)” value (DOT1L (1-416)) was 0.
For `N#Cc1ccc(O)c(Cl)c1` [Fragment B02291257], the “AAK1 (STD-NMR hit flag)” value (AAK1 (121-471)) was 1, the “CAMK1G (STD-NMR hit flag)” value (CAMK1G (1-320)) was 0 and the “IDO1 (STD-NMR hit flag)” value (IDO1 (1-435)) was 0. For the same compound, the “DOT1L (STD-NMR hit flag)” value (DOT1L (1-416)) was 0.
`O=C(O)c1cccnc1Cl` [Fragment B02291258] was tested, and the “AAK1 (STD-NMR hit flag)” value (AAK1 (121-471)) was 0, the “CAMK1G (STD-NMR hit flag)” value (CAMK1G (1-320)) was 0 and the “IDO1 (STD-NMR hit flag)” value (IDO1 (1-435)) was 0. For the same compound, the “DOT1L (STD-NMR hit flag)” value (DOT1L (1-416)) was 0.
`Nc1ccc(C(=O)O)c(Cl)c1` [Fragment B02291259] was tested, and the “AAK1 (STD-NMR hit flag)” value (AAK1 (121-471)) was 0, the “CAMK1G (STD-NMR hit flag)” value (CAMK1G (1-320)) was 0 and the “IDO1 (STD-NMR hit flag)” value (IDO1 (1-435)) was 0. For the same compound, the “DOT1L (STD-NMR hit flag)” value (DOT1L (1-416)) was 0.
In the case of `Nc1ccc(Cl)c(C(=O)O)c1` [Fragment B02291260], the “AAK1 (STD-NMR hit flag)” value (AAK1 (121-471)) is reported as 0, the “CAMK1G (STD-NMR hit flag)” value (CAMK1G (1-320)) is reported as 0 and the “IDO1 (STD-NMR hit flag)” value (IDO1 (1-435)) is reported as 0. For the same compound, the “DOT1L (STD-NMR hit flag)” value (DOT1L (1-416)) was 0.
For `O=C(O)c1cncc(Br)c1` [Fragment B02291261], the “AAK1 (STD-NMR hit flag)” value (AAK1 (121-471)) was 1, the “CAMK1G (STD-NMR hit flag)” value (CAMK1G (1-320)) was 0 and the “IDO1 (STD-NMR hit flag)” value (IDO1 (1-435)) was 0. For the same compound, the “DOT1L (STD-NMR hit flag)” value (DOT1L (1-416)) was 1.
With `Fc1ncccc1I` [Fragment B02291262] the “AAK1 (STD-NMR hit flag)” value (AAK1 (121-471)) was 0, the “CAMK1G (STD-NMR hit flag)” value (CAMK1G (1-320)) was 0 and the “IDO1 (STD-NMR hit flag)” value (IDO1 (1-435)) was 0. For the same compound, the “DOT1L (STD-NMR hit flag)” value (DOT1L (1-416)) was 0.
In the case of `NS(=O)(=O)c1cc(C(=O)O)ccc1Cl` [Fragment B02291263], the “AAK1 (STD-NMR hit flag)” value (AAK1 (121-471)) is reported as 0, the “CAMK1G (STD-NMR hit flag)” value (CAMK1G (1-320)) is reported as 0 and the “IDO1 (STD-NMR hit flag)” value (IDO1 (1-435)) is reported as 0. For the same compound, the “DOT1L (STD-NMR hit flag)” value (DOT1L (1-416)) was 0.
In the case of `O=C(O)c1cc(Br)c[nH]1` [Fragment B02291264], the “AAK1 (STD-NMR hit flag)” value (AAK1 (121-471)) is reported as 0, the “CAMK1G (STD-NMR hit flag)” value (CAMK1G (1-320)) is reported as 0 and the “IDO1 (STD-NMR hit flag)” value (IDO1 (1-435)) is reported as 0. For the same compound, the “DOT1L (STD-NMR hit flag)” value (DOT1L (1-416)) was 0.
With `Clc1n[nH]c2ccccc12` [Fragment B02291265] the “AAK1 (STD-NMR hit flag)” value (AAK1 (121-471)) was 1, the “CAMK1G (STD-NMR hit flag)” value (CAMK1G (1-320)) was 1 and the “IDO1 (STD-NMR hit flag)” value (IDO1 (1-435)) was 0. For the same compound, the “DOT1L (STD-NMR hit flag)” value (DOT1L (1-416)) was 0.
